In patent publication US6380181B1, “Synthetic catechol derivatives, method for production and use thereof” (priority 1996, dated 2002):
Read-outs that look alike come from different tables or passages of the source.

Columns and labels:
Format in all cases: cell-based
[1] = test system: Salmonella typhimurium TA 2700; further: test concentration or dose not given here
Description: (§1) In the indicator mutants, the synthesis of the respective siderophores, e.g. pyoverdin, pyochelin, enterobactin, aerobactin or yersiniabactin, or the biosynthesis of aromatic compounds, is blocked, or there is a lack of receptors for enterobactin, pyochelin or pyoverdin and for other important components for the bacterial transport of iron (e.g. the membrane proteins Cir, Fiu, FepA and TonB). Under conditions where there is a lack of iron, these mutants therefore cannot grow or can only grow to a very slight extent. In particular, the following indicator mutants were used: Pseudomonas aeruginosa PAO 6609, K 407, 690; E. coli AB 2847, Salmonella typhimurium enb-7, TA 270; Klebsiella pneumoniae KN 4401; Yersinia enterocolitica WAH; Proteus mirabilis 12 (wild); Proteus vulgaris 718 (wild) and Morganella morganii SBK3 (wild). […] The controls used were ferrioxamine E for the Pseudomonas strains, ferrioxamine G and enterobactin for the Salmonella strains, ferrichrome for the E. coli, Klebsiella and Y. enterocol. strains, and 3,4-dihydroxybenzylidene-2,4,6-trimethylaniline for Morganella morganii (see the above literature reference by R. Reissbrodt et al.).
(§2) The annotations + and (+) relate to non-specific promotion of growth.

[2] = test system: Pseudomonas aeruginosa PAO 6609
Description: as §1, §2

[3] = test system: Pseudomonas aeruginosa K 407; conditions: Pseudomonas aeruginosa K407
Description: as §1, §2

E. coli AB 2847 = test system: E. coli AB 2847; further: test concentration or dose not given here
Description: as §1, §2

[4] = test system: Salmonella typhimurium enb-7; further: test concentration or dose not given here
Description: as §1, §2

[5] = test system: Pseudomonas aeruginosa 690; further: test concentration or dose not given here
Description: as §1, §2

[6] = test system: Morganella morganii SBK3 (wild)
Description: as §1, §2

[7] = test system: Proteus mirabilis 12 (wild); conditions: Proteus mir. 12
Description: as §1, §2

[8] = test system: Klebsiella pneumoniae KN 4401; conditions: Klebsiella KN 4401
Description: as §1, §2

[9] = test system: Proteus vulgaris 718 (wild); conditions: Proteus vul. 718
Description: as §1, §2

CC(=O)Oc1cccc(C(=O)Nc2ccccc2C(=O)O)c1OC(C)=O [Substance 16, 2-(2,3-Diacetoxy-benzoylamino)-benzoic Acid]
Growth areas of siderophore indicator strains (diameter) [1]: 10 mm
Growth areas of siderophore indicator strains (diameter) [2]: 20 mm
Growth areas of siderophore indicator strains (diameter) [3]: 20 mm
Growth areas of siderophore indicator strains (diameter) (E. coli AB 2847): 24 mm
Growth areas of siderophore indicator strains (diameter) [4]: 25 mm
Growth areas of siderophore indicator strains (diameter) [5]: 20 mm

CC(=O)Oc1cccc(C(=O)Nc2ccc(C(=O)O)cc2)c1OC(C)=O [Substance 17, 4-(2,3-Diacetoxy-benzoylamino)benzoic Acid]
Growth areas of siderophore indicator strains (diameter) [2]: 0 mm
Growth areas of siderophore indicator strains (diameter) ([6]; M. morg. SBK 3): 12 mm
Growth areas of siderophore indicator strains (diameter) (E. coli AB 2847): 26 mm
Growth areas of siderophore indicator strains (diameter) [4]: 0 mm

COC(=O)Oc1ccc(C(=O)NN=C(C(=O)O)c2ccccc2)cc1OC(=O)OC [Substance 12, {[3,4-di(Methoxycarbonyloxy)-benzoyl]-hydrazono}-phenylacetic Acid]
Growth areas of siderophore indicator strains (diameter) [7]: 17 mm
Growth areas of siderophore indicator strains (diameter) [1]: 0 mm
Growth areas of siderophore indicator strains (diameter) [8]: 30 mm
Growth areas of siderophore indicator strains (diameter) [2]: 14 mm
Growth areas of siderophore indicator strains (diameter) ([6]; M. morg. SBK 3): 15 mm
Growth areas of siderophore indicator strains (diameter) [3]: 0 mm
Growth areas of siderophore indicator strains (diameter) [9]: 20 mm
Growth areas of siderophore indicator strains (diameter) (E. coli AB 2847): 14 mm
Growth areas of siderophore indicator strains (diameter) [4]: 0 mm
Growth areas of siderophore indicator strains (diameter) [5]: 12 mm

CC(=O)Oc1ccc(C=Nc2ccc(C(=O)O)cc2)cc1OC(C)=O [Substance 6, 4-(3,4-Diacetoxybenzylideneamino)-benzoic Acid]
Growth areas of siderophore indicator strains (diameter) [7]: 23 mm
Growth areas of siderophore indicator strains (diameter) [1]: 0 mm
Growth areas of siderophore indicator strains (diameter) [8]: 25 mm
Growth areas of siderophore indicator strains (diameter) [2]: 14 mm
Growth areas of siderophore indicator strains (diameter) ([6]; M. morg. SBK 3): 25 mm
Growth areas of siderophore indicator strains (diameter) [3]: 17 mm
Growth areas of siderophore indicator strains (diameter) [9]: 25 mm
Growth areas of siderophore indicator strains (diameter) (E. coli AB 2847): 17 mm
Growth areas of siderophore indicator strains (diameter) [4]: 34 mm
Growth areas of siderophore indicator strains (diameter) [5]: 19 mm

O=C(NCCCCC(NC(=O)c1cccc(O)c1O)C(=O)NC[C@H](NC(=O)c1cccc(O)c1O)C(=O)O)c1cccc(O)c1O (stereo partly shown) [Substance 22]
Growth areas of siderophore indicator strains (diameter) [1]: 50 mm
Growth areas of siderophore indicator strains (diameter) [2]: 48 mm
Growth areas of siderophore indicator strains (diameter) [3]: 40 mm
Growth areas of siderophore indicator strains (diameter) (E. coli AB 2847): 0 mm
Growth areas of siderophore indicator strains (diameter) [4]: 50 mm
Growth areas of siderophore indicator strains (diameter) [5]: 50 mm

O=C(NCCC[C@H](NC(=O)c1cccc(O)c1O)C(=O)O)c1cccc(O)c1O [Substance 18, L-2,5-bis-(2,3-Dihydroxybenzoylamino)-pentanoic Acid]
Growth areas of siderophore indicator strains (diameter) [1]: 50 mm
Growth areas of siderophore indicator strains (diameter) [2]: 20 mm
Growth areas of siderophore indicator strains (diameter) [3]: 17 mm
Growth areas of siderophore indicator strains (diameter) (E. coli AB 2847): 30 mm
Growth areas of siderophore indicator strains (diameter) [4]: 48 mm
Growth areas of siderophore indicator strains (diameter) [5]: 18 mm

O=C(O)c1cccc(N=Nc2ccc(O)c(O)c2)c1 [Substance 8, 3-(3,4-Dihydroxyphenylazo)benzoic Acid]
Growth areas of siderophore indicator strains (diameter) [7]: 20 mm
Growth areas of siderophore indicator strains (diameter) [1]: 0 mm
Growth areas of siderophore indicator strains (diameter) [8]: 20 mm
Growth areas of siderophore indicator strains (diameter) [2]: 13 mm
Growth areas of siderophore indicator strains (diameter) ([6]; M. morg. SBK 3): 20 mm
Growth areas of siderophore indicator strains (diameter) [3]: 15 mm
Growth areas of siderophore indicator strains (diameter) [9]: 20 mm
Growth areas of siderophore indicator strains (diameter) (E. coli AB 2847): 13 mm
Growth areas of siderophore indicator strains (diameter) [4]: 0 mm
Growth areas of siderophore indicator strains (diameter) [5]: 0 mm

O=C(NCC[C@H](NC(=O)c1cccc(O)c1O)C(=O)O)c1cccc(O)c1O [Substance 21, L-2,4-Bis-(2,3-dihydroxybenzoylamino)-butyric Acid]
Growth areas of siderophore indicator strains (diameter) [1]: 40 mm
Growth areas of siderophore indicator strains (diameter) [2]: 14 mm
Growth areas of siderophore indicator strains (diameter) [3]: 15 mm
Growth areas of siderophore indicator strains (diameter) (E. coli AB 2847): 33 mm
Growth areas of siderophore indicator strains (diameter) [4]: 36 mm
Growth areas of siderophore indicator strains (diameter) [5]: 15 mm

CC(=O)Oc1cccc(C(=O)NCCCC[C@H](NC(=O)c2cccc(OC(C)=O)c2OC(C)=O)C(=O)O)c1OC(C)=O [Substance 25, 1L-2,6-Bis-(2,3-diacetoxybenzoylamino)-hexanoic Acid]
Growth areas of siderophore indicator strains (diameter) [2]: 18 mm
Growth areas of siderophore indicator strains (diameter) [6]: 38 mm
Growth areas of siderophore indicator strains (diameter) (E. coli AB 2847): 30 mm
Growth areas of siderophore indicator strains (diameter) [4]: 28 mm

O=C(NCCC[C@@H](NC(=O)c1cccc(O)c1O)C(=O)O)c1cccc(O)c1O [Substance 24, D-2,5-Bis-(2,3-dihydroxybenzoylamino)-pentanoic Acid]
Growth areas of siderophore indicator strains (diameter) [1]: 40 mm
Growth areas of siderophore indicator strains (diameter) [2]: 20 mm
Growth areas of siderophore indicator strains (diameter) [3]: 20 mm
Growth areas of siderophore indicator strains (diameter) (E. coli AB 2847): 40 mm
Growth areas of siderophore indicator strains (diameter) [4]: 50 mm
Growth areas of siderophore indicator strains (diameter) [5]: 20 mm

CC(=O)Oc1cccc(C(=O)N[C@@H](CO)C(=O)O)c1OC(C)=O [Substance 23, L-2-[2,3-Diacetoxybenzoylamino)-3-hydroxypropionic Acid]
Growth areas of siderophore indicator strains (diameter) [1]: 20 mm
Growth areas of siderophore indicator strains (diameter) (E. coli AB 2847): 22 mm
Growth areas of siderophore indicator strains (diameter) [4]: 27 mm
Growth areas of siderophore indicator strains (diameter) [5]: 14 mm

CC(=O)Oc1cccc(C(=O)N2COC[C@H]2C(=O)O)c1OC(C)=O [Substance 26, (S)-3-(2,3-diacetoxybenzoyl)-oxazolidine-4-carboxylic Acid]
Growth areas of siderophore indicator strains (diameter) [2]: 0 mm
Growth areas of siderophore indicator strains (diameter) ([6]; M. morg. SBK 3): 10 mm
Growth areas of siderophore indicator strains (diameter) (E. coli AB 2847): 14 mm
Growth areas of siderophore indicator strains (diameter) [4]: 32 mm

O=C(O)C(=NNC(=O)c1ccc(O)c(O)c1)c1ccccc1 [Substance 9, [(3,4-Dihydroxybenzoyl)-hydrazono]-phenylacetic Acid]
Growth areas of siderophore indicator strains (diameter) [7]: 9 mm
Growth areas of siderophore indicator strains (diameter) [1]: 0 mm
Growth areas of siderophore indicator strains (diameter) [8]: 27 mm
Growth areas of siderophore indicator strains (diameter) (E. coli AB 2847): 0 mm
Growth areas of siderophore indicator strains (diameter) [4]: 0 mm
Growth areas of siderophore indicator strains (diameter) [5]: 10 mm

C[C@H](NC(=O)c1cccc(O)c1O)C(=O)O [Substance 19, L-2-(2,3-Dihydroxybenzoylamino)-propionic Acid]
Growth areas of siderophore indicator strains (diameter) [1]: 17 mm
Growth areas of siderophore indicator strains (diameter) [3]: 10 mm
Growth areas of siderophore indicator strains (diameter) (E. coli AB 2847): 11 mm
Growth areas of siderophore indicator strains (diameter) [4]: 29 mm
Growth areas of siderophore indicator strains (diameter) [5]: 0 mm

COC(=O)Oc1ccc(C=Nc2cc(C(=O)O)ccc2O)cc1OC(=O)OC [Substance 2, 3-[3 ,4-di(Methoxycarbonyloxy)-benzylideneamino]4-hydroxybenzoic Acid]
Growth areas of siderophore indicator strains (diameter) [7]: 16 mm
Growth areas of siderophore indicator strains (diameter) [1]: 0 mm
Growth areas of siderophore indicator strains (diameter) [8]: 35 mm
Growth areas of siderophore indicator strains (diameter) [2]: 17 mm
Growth areas of siderophore indicator strains (diameter) ([6]; M. morg. SBK 3): 20 mm
Growth areas of siderophore indicator strains (diameter) [3]: 18 mm
Growth areas of siderophore indicator strains (diameter) [9]: 25 mm
Growth areas of siderophore indicator strains (diameter) (E. coli AB 2847): 0 mm
Growth areas of siderophore indicator strains (diameter) [4]: 30 mm
Growth areas of siderophore indicator strains (diameter) [5]: 17 mm

CC(=O)Oc1ccc(N=Cc2cc(C(=O)O)cc(O)c2O)cc1OC(C)=O [Substance 7, 3-[(3,4-Diacetoxyphenylimino)-methyl]-4,5-dihydroxybenzoic Acid]
Growth areas of siderophore indicator strains (diameter) [7]: 20 mm
Growth areas of siderophore indicator strains (diameter) [1]: 0 mm
Growth areas of siderophore indicator strains (diameter) [8]: 23 mm
Growth areas of siderophore indicator strains (diameter) [2]: 0 mm
Growth areas of siderophore indicator strains (diameter) ([6]; M. morg. SBK 3): 22 mm
Growth areas of siderophore indicator strains (diameter) [3]: 0 mm
Growth areas of siderophore indicator strains (diameter) [9]: 22 mm
Growth areas of siderophore indicator strains (diameter) (E. coli AB 2847): 0 mm
Growth areas of siderophore indicator strains (diameter) [4]: 0 mm
Growth areas of siderophore indicator strains (diameter) [5]: 0 mm

CC(=O)Oc1cccc(C(=O)N[C@@H](C)C(=O)O)c1OC(C)=O [Substance 20, L-2-(2,3-Diacetoxybenzoylamino)-propionic Acid]
Growth areas of siderophore indicator strains (diameter) [1]: 12 mm
Growth areas of siderophore indicator strains (diameter) [3]: 10 mm
Growth areas of siderophore indicator strains (diameter) (E. coli AB 2847): 18 mm
Growth areas of siderophore indicator strains (diameter) [4]: 31 mm
Growth areas of siderophore indicator strains (diameter) [5]: 0 mm
